Assay results reported in patent publication US8344022B2, “Vaginal health products” (Kimberly-Clark Worldwide, Inc., priority 2004, dated 2013).
Values joined by “and” are separate entries in the source; they are usually repeats but may differ in a detail not shown here. Equal entries are not always repeated.

What was measured:
stratum corneum = assay: Dansyl chloride cell renewal study in healthy female volunteers; type: in vivo, human
Description: The stratum corneum renewal time is the time taken for the whole thickness of the stratum corneum to be exfoliated and replaced by new cells from the dividing epidermis. This renewal time is a fundamental indicator of skin health. […] See Jansen L H, Hojyo-Tomoko M T, Kligman A M., Improved fluorescence staining technique for estimating turnover of the human stratum corneum, Br J Dermatol., 90, 9-12, 1974; Ridge B D, Batt M D, Palmer H E, Jarrett A, The dansyl chloride technique for stratum corneum renewal as an indicator of changes in epidermal mitotic activity following topical treatment., Br J Dermatol., 118, 167-74, 1988; Grove G L, Kligman A M, Age-associated changes in human epidermal cell renewal., J Geron., 38, 137-142, 1983. The time required for the dye to disappear is therefore an indication of the turnover time of the stratum corneum. Therefore, any differences in the time required for the dye to disappear from treated and non-treated sites can be considered to be an expression of that product's ability to enhance epidermal renewal.
A dansyl chloride cell renewal study was conducted in healthy female volunteers ranging from 43-64 years of age. The study consisted of a two-week treatment period during which time the products were applied topically twice daily, including on weekend days, to the test sites. The area of application was designated, approximately 5 cm×10 cm on the upper inner arm. The other arm served as a control with no product application. […] Eight females received jasmonic acid and seven females received gibberellic acid.
The time required for a marker dye to disappear was used as the measure of cell renewal rate.

[1] = system: collagen production in human skin fibroblast cell line; assay: Collagen production by human skin fibroblasts (Takara EIA MK101); type: cell-based; conditions: for Collagen Production, Mean (absorbance at 450 nm) / Collagen Production, Median (absorbance at 450 nm): 48 hours, n=2
Method: The cells were first grown in a 96-well assay system using Dulbecco's Modified Eagle's Medium (DMEM) with 10% fetal bovine serum (FBS) both purchased from Sigma Chemical Co, St. Louis, Mo. Serum-free DMEM was used as a control.
The assay was done by using the recommended 20 ul of the supernatant from each well of the 96-well plate. Standard buffer and stop solutions were freshly prepared before running the assay. 100 ul of antibody-POD conjugate solution (supplied with the kit) was added into the wells using pre antibody coated 96 well plate (supplied with the kit). 20 ul of standard and test solutions (from the other 96-well plate containing fibroblasts) were added to appropriate wells. Plate was mixed gently, sealed and incubated for three hrs. at 37° C.
After incubation each well was washed carefully four times with PBS buffer (400 ul). All the wells were completely emptied at the end of washing from any liquid.
100 ul of substrate solution (hydrogen peroxide and tetramethylbenzidine in a buffer solution, supplied with the kit) was added to each well and the plate was incubated for 15 minutes. At this point 100 ul of stop solution (freshly prepared 1N H2SO4) was added to each well in the same order as substrate. The plate was gently mixed and absorbance was read at 450 nm.

[2] = system: fibronectin production in human skin fibroblast cell line; assay: Fibronectin production by human skin fibroblasts (Takara EIA MK115); type: cell-based; conditions: for fibronectin production, Mean (absorbance at 450 nm) / fibronectin production, Median (absorbance at 450 nm): 48 hours, n=2
Method: The cells were first grown in a 96-well assay system using Dulbecco's Modified Eagle's Medium (DMEM) with 10% fetal bovine serum (FBS) both purchased from Sigma Chemical Co, St. Louis, Mo. Serum-free DMEM was used as a control. […] The fibronectin assay was performed using the recommended 100 μl of the supernatant from each well of the 96-well plate. Standard buffer and stop solutions were freshly prepared before running the assay. A pre-antibody-coated 96 well plate (provided with the kit) was used to transfer the test samples and control. The plate was mixed, sealed and incubated for 1 hour at 37° C. All the wells were washed after removing sample solutions, 3 times (300 μl) with washing buffer. 100 ul of antibody-POD conjugate solution was added into the wells. Plate was mixed, sealed and incubated for one hour at 37° C. Solutions were removed and the wells were washed 3 times with washing buffer. All the wells were completely emptied at the end of washing from any liquid. 100 μl of substrate solution (hydrogen peroxide and tetramethylbenzidine in a buffered solution) was added to each well and the plate was incubated at room temperature for 15 minutes. 100 μl of stop solution (freshly prepared 1N H2SO4) was added to each well in the same order as substrate. The plate was gently mixed and absorbance was read at 450 nm.

[3] = system: Human cervical epithelial cells (ME-180); assay: ME-180 cell growth with jasmonic acid (hemocytometer counting); type: cell-based; conditions: 1, 10 and 100 μg/ml, two days
Method: Human cervical epithelial cells (ME-180, ATCC) were propagated in culture at 37° C. using 5% CO2 in McCoy's 5A media (Invitrogen) with 10% heat-inactivated fetal bovine serum (Invitrogen). Jasmonic acid (Sigma) was diluted in the ME-180 media to 100, 10, and 1 microgram/mL.
ME-180 cells were plated in 12-well plates at a concentration of 5×10^4 cells per well in 2 mL of media. The cells were allowed to grow for 1 day. Cells in three wells were counted by trypsinizing and using a hemocytometer to determine cell number on day zero. The media was removed from all other wells and was replaced with fresh media, 100, 10, or 1 μg/mL jasmonic acid-containing media (2 mL) in triplicate. Cells were counted on days 1 and 2 to determine the effect of the jasmonic acid on cell growth.

human skin keratinocytes = assay: Keratinocyte proliferation, 96-well Cell Titer 96 assay; type: cell-based; conditions: for Cell Proliferation, Mean (absorbance at 490 nm) / Cell Proliferation, Median (absorbance at 490 nm): 48 hours, n=5
Method: The proliferative response of these human skin keratinocytes to the test compounds was measured in a 96-well assay system using keratinocyte basal medium (KBM, Clonetics, catalog number CC-3103) as a control. […] In addition, 100 μl of vehicle KBM was added to 5 wells as control. […] The spectrophotometric absorbance of each well was read at 490 nm.

In the case of CC/C=C\C[C@H]1C(=O)CC[C@@H]1CC(=O)O [jasmonic acid], the “skin irritation or redness” value (stratum corneum; human, in vivo) is reported as “no visible sign of any skin irritation or redness”, the “RENEWAL, time for cell renewal of treated skin” value (stratum corneum; individual patients (one value per patient #), 0.25% in hyaluronic acid (0.5% aqueous solution), topical twice daily, upper inner arm, listed as JA) is reported as 16 Days and 15 Days (2×) and 17 Days and 14 Days and 11 Days and 12 Days (2×) and the “faster cell renewal rate over control” value (stratum corneum; overall, 0.25% topical, vs untreated arm) is reported as 28%. The “reduction in time required for cell renewal vs untreated control” value (stratum corneum; vs volunteers' control without treatment) was “about 28%”, the “Collagen Production, Mean (absorbance at 450 nm)” value (shortened to “Collagen Production, Mean”) ([1]; 1×10^−4 M) was 0.8040 and the “Collagen Production, Median (absorbance at 450 nm)” value (“Collagen Production, Median” for short) ([1]; 1×10^−4 M) was 0.8040. For the same compound, the “collagen production in human fibroblasts (summary in words)” value ([1]; 1×10^−4 to 1×10^−6 M) was “stimulate collagen production”, the “Collagen Production, Mean” value ([1]; 1×10^−5 M) was 0.7895 and the “Collagen Production, Median” value ([1]; 1×10^−5 M) was 0.7895. The “Collagen Production, Mean” value ([1]; 1×10^−6 M) was 0.7475, the “Collagen Production, Median” value ([1]; 1×10^−6 M) was 0.7475 and the “fibronectin production, Mean (absorbance at 450 nm)” value (from here on “fibronectin production, Mean”) ([2]; 1×10^−4 M) was 0.2060. The “fibronectin production, Median (absorbance at 450 nm)” value (shortened to “fibronectin production, Median”) ([2]; 1×10^−4 M) was 0.2060, the “fibronectin production, Mean” value ([2]; 1×10^−5 M) was 0.2025 and the “fibronectin production, Median” value ([2]; 1×10^−5 M) was 0.2025. The “fibronectin production, Mean” value ([2]; 1×10^−6 M) was 0.1955, the “fibronectin production, Median” value ([2]; 1×10^−6 M) was 0.1955 and the “fibronectin production in human fibroblasts (summary in words)” value ([2]; all concentrations tested, vs control) was “effective”. The “ME-180 epithelial cell growth (FIGS. 8 and 9)” value [3] was “increased cell growth in a dose dependent manner”, the “Cell Proliferation, Mean (absorbance at 490 nm)” value (from here on “Cell Proliferation, Mean”) (human skin keratinocytes; 1×10^−4 M) was 0.5732 and the “Cell Proliferation, Median (absorbance at 490 nm)” value (shortened to “Cell Proliferation, Median”) (human skin keratinocytes; 1×10^−4 M) was 0.5860. For the same compound, the “cell proliferating activity on human keratinocytes (summary in words)” value (human skin keratinocytes; 1×10^−4 to 1×10^−6 M) was “strong cell proliferating activity”, the “Cell Proliferation, Mean” value (human skin keratinocytes; 1×10^−5 M) was 0.7628 and the “Cell Proliferation, Median” value (human skin keratinocytes; 1×10^−5 M) was 0.7750. For the same compound, the “Cell Proliferation, Mean” value (human skin keratinocytes; 1×10^−6 M) was 0.7734 and the “Cell Proliferation, Median” value (human skin keratinocytes; 1×10^−6 M) was 0.7970.
